What is called Ki is the equilibrium dissociation constant of an inhibitor or competing ligand from its target. One may read the IC50 as the point on the concentration scale where inhibition reaches its midpoint.

The structures appear in SMILES notation.

The assay deals with T1, Neutrophil elastase (Homo sapiens, UniProt P08246).
T1 sequence (P08246 whole entry): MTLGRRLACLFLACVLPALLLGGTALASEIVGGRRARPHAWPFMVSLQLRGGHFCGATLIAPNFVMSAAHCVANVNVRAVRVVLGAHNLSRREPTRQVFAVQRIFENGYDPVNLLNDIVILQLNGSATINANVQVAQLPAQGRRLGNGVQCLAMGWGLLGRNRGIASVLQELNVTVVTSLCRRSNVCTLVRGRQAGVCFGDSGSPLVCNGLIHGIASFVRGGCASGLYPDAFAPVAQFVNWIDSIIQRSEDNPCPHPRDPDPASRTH
The assay is described as follows: In vitro inhibitory activity against human leukocyte elastase was determined.

Compound `CC(C)[C@H](NC(=O)Oc1ccccc1)C(=O)N1CCC[C@H]1C(=O)N[C@H](C(=O)C(F)(F)CN)C(C)C` came in with a Ki of 0.81 nM.

`CC(C)[C@H](NC(=O)Oc1ccccc1)C(=O)N1CCC[C@H]1C(=O)N[C@H](C(=O)C(F)(F)CNCc1ccccc1)C(C)C`: the inhibition constant Ki is 4.1 nM.

Turning to `CNC(=O)C(F)(F)C(=O)[C@@H](NC(=O)[C@@H]1CCCN1C(=O)[C@@H](NC(=O)Oc1ccccc1)C(C)C)C(C)C`, the affinity corresponds to a Ki of 0.85 nM.

With `CC(C)[C@H](NC(=O)Oc1ccccc1)C(=O)N1CCC[C@H]1C(=O)N[C@H](C(=O)C(F)(F)F)C(C)C`, the inhibitory constant (Ki) is 2.3 nM.

Turning to `CC(C)[C@H](NC(=O)OCc1ccccc1)C(=O)N1CCC[C@H]1C(=O)N[C@H](C(=O)C(F)(F)CN)C(C)C`, the Ki came to 130 nM.

For the compound `COc1ccc(C(=O)N[C@H](C(=O)N2CCC[C@H]2C(=O)N[C@H](C(=O)C(F)(F)C(N)=O)C(C)C)C(C)C)cc1`, the inhibition constant Ki came to 0.65 nM.

`CC(C)CC(=O)NCC(F)(F)C(=O)C(CC1CCCCC1)NC(=O)[C@@H](NC(=O)[C@H](Cc1ccccc1)NC(=O)OC(C)(C)C)C(C)C` (stereo partly specified) showed an IC50 of 3.5 nM.

Consider `COc1ccc(C(=O)N[C@H](C(=O)N2CCC[C@H]2C(=O)N[C@H](C(=O)C(F)(F)CN)C(C)C)C(C)C)cc1`, for which the affinity corresponds to a Ki of 15 nM.

Take `CC(C)[C@H](NC(=O)OCc1ccccc1)C(=O)N1CCC[C@H]1C(=O)N[C@H](C(=O)C(F)(F)C(N)=O)C(C)C`: the inhibition constant (Ki) is 0.38 nM.

For the compound `CNC(=O)C(F)(F)C(=O)[C@@H](NC(=O)[C@@H]1CCCN1C(=O)[C@@H](NC(=O)c1ccc(OC)cc1)C(C)C)C(C)C`, the inhibition constant Ki was 3.4 nM.

`CC(C)[C@H](NC(=O)OCc1ccccc1)C(=O)N1CCC[C@H]1C(=O)N[C@H](C(=O)C(F)(F)CNCc1ccccc1)C(C)C` showed a Ki of 1.6 nM.

As for `COc1ccc(C(=O)N[C@H](C(=O)N2CCC[C@H]2C(=O)N[C@H](C(=O)C(F)(F)CNCc2ccccc2)C(C)C)C(C)C)cc1`, the affinity, expressed as Ki, was 0.35 nM.

In turn, `CNC(=O)C(F)(F)C(=O)[C@@H](NC(=O)[C@@H]1CCCN1C(=O)[C@@H](NC(=O)OCc1ccccc1)C(C)C)C(C)C` came in with an inhibition constant (Ki) of 3 nM.

For the compound `CC(C)[C@H](NC(=O)OCc1ccccc1)C(=O)N1CCC[C@H]1C(=O)N[C@H](C(=O)C(F)(F)CNC(=O)OC(C)(C)C)C(C)C`, the Ki was 1.1 nM.

The compound `COc1ccc(C(=O)N[C@H](C(=O)N2CCC[C@H]2C(=O)N[C@H](C(=O)C(F)(F)CNC(=O)OC(C)(C)C)C(C)C)C(C)C)cc1` displayed a Ki of 3.4 nM.

In turn, `CC(C)[C@H](NC(=O)Oc1ccccc1)C(=O)N1CCC[C@H]1C(=O)N[C@H](C(=O)C(F)(F)CNC(=O)OC(C)(C)C)C(C)C` showed an inhibitory constant (Ki) of 0.39 nM.

The values above are taken from ChEMBL document CHEMBL1127968, “Examination of peptidic ,-diamino-,-difluoroketones as inhibitors of human leukocyte elastase” (Bioorg Med Chem Lett, 1994).
